Reference: patent publication US20240182492A1, “AZAHETEROARYL COMPOUND, PREPARATION METHOD THEREFOR, AND APPLICATION THEREOF” (SHANGHAI BLUERAY BIOPHARMA CO., LTD., priority 2021, published 2024)

Key:
[1] = target: T1, EED protein (full-length, His6 tag) binding to H3K27me3 polypeptide (Homo sapiens, UniProt O75530); assay: AlphaScreen evaluation of blocking the binding of EED to H3K27Me3; settings: EED / biotinylated H3K27me3 peptide competition
T1 construct: The full-length EED protein (441 amino acids) with His6 tag
Protocol: Example 53: Evaluation of the Effect of the Compound in Blocking the Binding of EED to H3K27Me3 by AlphaScreen (a-Screening) Method
First, compound solutions with different concentration gradients are prepared. Compound powder is dissolved in DMSO to form mother liquor. 1.5 μL of the compound mother liquor is taken to 198.5 μL reaction buffer (25 mM HEPES (pH 8.0), 50 mM NaCl, 0.015% Tween 20, 0.5% BSA) and the solution is mix uniformly, and then 3-fold gradient dilution is performed with the above buffer containing 0.75% DMSO. 9 different test concentrations are set for the same compound. 5 μL of compounds with different concentration gradients was taken to ProxiPlate-384 Plus, White detection plate (PerkinElmer, 6008280), and 2 parallel replicates are set for each concentration gradient.
Next, a binding blocking reaction is performed. The full-length EED protein (441 amino acids) with His6 tag is diluted to 60 nM with the above buffer, and the biotinylated polypeptide fragment H3K27me3 (amino acids 19-33) (Biotinylated-H3K27me3) is diluted to 75 nM with the same buffer. 5 μL of 75 nM peptide fragments and 5 μL of 60 nM protein are transferred to the testing wells containing the compound respectively. The testing plate is sealed with a film, and is incubated for 30 minutes at room temperature.
Finally, AlphaScreen method is used for detection. Before use, nickel chelate acceptor beads and streptavidin donor beads (Perkin Elmer, product number 6760619M) are mixed into the above reaction buffer at a ratio of 1:1, and then 5 μL of the above pre-mixed testing solution is added to each testing well. The final concentration of the donor beads and acceptor beads is 5 μg/mL. The testing plate is covered with tin foil and placed at room temperature in the dark for 1 hour. Signals are read using an AlphaScreen detector on a Spectra max i3. The AlphaScreen signal is normalized according to the readings obtained from the positive control (maximum signal control) and negative control (minimum signal control) to give the inhibition rate of different concentrations of the compound. After that, non-linear regression analysis was performed with GraphPad Prism 5, and dose-response equation Y=Bottom+(Top−Bottom)/(1+10^((Log IC50−X)*HillSlope)) is used to make an inhibition curve, obtaining the IC50 value of each compound. […]

[2] = test system: trimethylation level of histone H3K27 in G401 cells; assay: ELISA (H3K27 trimethylation) analysis in G401 cells; assay type: cell-based; settings: Homo sapiens, G-401, 72 h, H3K27me3 normalized by H3
Protocol: Example 54: ELISA (H3K27 Trimethylation) Analysis
Representative compounds of the present disclosure are diluted in DMSO with 3-fold gradient, and 10 concentration gradients are tested per compound. The maximum testing concentration is 10 μM. The compound is diluted 200-fold into G401 cells cultured in 96-well plates (the final concentration of DMSO is 0.5%). After the cells are cultured for 72 hours, the trimethylation level of histone H3K27 is detected by ELISA method.
Histone extraction: compound-treated cells in a 96-well plate are washed 3 times with 1×PBS (10×PBS buffer (80 g NaCl (Sigma, Product No. S3014), 2 g KCl (Sigma, Product No. 60128), 14.4 g Na2HAPO4 (Sigma, Product No. S5136) and 2.4 g KH2PO4 (Sigma, Product No. P9791) are added to 1 L water, pH to 7.4), and 100 μL of 0.4N HCl is added to each well. The 96-well plate is placed at 4° C. and gently shaken for 2 hours to lyse the cells. The cell lysate is then neutralized with 80 μL of neutralization buffer (0.5M disodium hydrogen phosphate, pH 12.5, 2.5 mM DTT; 1% cocktail (Sigma, Product No. P8340) (mixing the cell lysate and neutralization buffer thoroughly).
ELISA detection method: the cell lysates are transferred in parallel to two 384-well assay plates (PerkinElmer, OptiPlate-384HB, Product No. 6007290). One plate is used to detect the trimethylation level of H3K27, and the other plate is used to measure the level of H3. PBS is adjusted to a final volume of 50 μL/well. The wells are coated overnight at 4° C. On the next day, the solution in the wells was discarded. TBST buffer (1 xTBS (10×TBS: 24.2 g Tris (Sigma, Product No. T6066) and 80 g NaCl (Sigma, Product No. S3014) are added to 1 L water, and pH is adjusted to 7.6 with HCl) and 0.1% Tween-20) is used to wash it 5 times, and the water is dried on absorbent papers. 70 μL of blocking buffer (TBST, 5% BSA) is added to the coated reaction wells, and the wells are incubated for 1 hour at room temperature. The blocking buffer was discarded, and the primary antibody is added (30 μL/well). The required primary antibodies are diluted with blocking buffer, and the dilution ratios were as follows: anti-H3K27me3 antibody (Cell Signaling Technology, Product No. 9733), 1:2000 dilution; anti-H3 antibody (Cell Signaling Technology, Product No. 4499), 1:10000 dilution. After adding the primary antibody, the wells are incubated at room temperature for 1 hour. After washing with TBST for 5 times, the water are dried. The secondary antibody (30 μL/well) is added to each reaction well, and the wells are incubated at room temperature for 1 hour. Secondary antibody (anti-rabbit antibody (Jackson ImmunoResearch, Product No. 111-035-003)) is used after dilution 2000-fold in blocking buffer. After 1 hour, it is washed with TBST and dried. 30 μL of ECL substrate (Pierce, Product No. 34080) is added to each well and centrifuged for 30 seconds at 2000 rpm. Signal of each sample is detected using Molecular Devices, SpectraMax. Data processing: H3K27 methylation readings are first normalized by H3 signal. 0.500 DM8)-treated sample is used as a control, and the inhibition percentage of the compound is calculated. The data is fitted to a dose-response curve using the GraphPad prisim5 program, obtaining the IC50 values of the test compounds.

[3] = test system: B-cell non-Hodgkin lymphoma cells KARPAS-422; assay: Cell proliferation analysis, KARPAS-422, 13 days, CellTiter-Glo; assay type: cell-based, Human; settings: Homo sapiens, KARPAS-422, 312 h, Karpas-422, 13 days
Protocol: Example 55: Cell Proliferation Analysis
Human B-cell non-Hodgkin lymphoma cells KARPAS-422 S were cultured in culture flasks using standard cell culture conditions. The culture medium contains 15% fetal bovine serum (FBS, Invitrogen, product number 10099-141), 1% penicillin/streptomycin solution (P/S) RPMI-1640 (Invitrogen, product number 11875), and the culture flask is placed and cultured in a sterile incubator at 37° C., 95% relative humidity, and 5% CO2. In order to detect the effect of PRC2 inhibitors on cell proliferation, cells in the exponential growth phase were seeded into 96-well plates (Corning, product number 3904) at a density of 1×10^4 cells/well, and 100 μL of medium was added to each well. Subsequently, the compounds disclosed herein at different concentrations were added to the wells seeded with cells (9 concentration gradients were set for each compound, and the highest detection concentration was 10 μM, 3-fold gradient dilution), and 2 repeats in parallel were set for each treatment concentration. The final concentration of DMSO is 0.5%. Then the number of surviving cells was counted with Vi-CELL (Beckman Coulter) every 3-4 days. The cells counted each time were seeded into a new 96-well plate at the same density (1×10^4 cells/well). The wells were supplemented with fresh medium to 100 μL, and different concentrations of the compound were added at the same time. The cells were cultured until the 13th day, on which 100 μL of CellTiter-Glo (CellTiter-GloCellTiter-GloCellTiter-GloCTG) (Promega, Product No. G7573) was added to each well. The plate was placed for 10-20 minutes in the dark at room temperature, and Molecular Devices and SpectraMax i3X were used to read the luminous signal. The data were fitted to a dose-response curve using GraphPad prisim5 and the IC50 values of the tested compounds were obtained.

T1 sequence (O75530 whole entry): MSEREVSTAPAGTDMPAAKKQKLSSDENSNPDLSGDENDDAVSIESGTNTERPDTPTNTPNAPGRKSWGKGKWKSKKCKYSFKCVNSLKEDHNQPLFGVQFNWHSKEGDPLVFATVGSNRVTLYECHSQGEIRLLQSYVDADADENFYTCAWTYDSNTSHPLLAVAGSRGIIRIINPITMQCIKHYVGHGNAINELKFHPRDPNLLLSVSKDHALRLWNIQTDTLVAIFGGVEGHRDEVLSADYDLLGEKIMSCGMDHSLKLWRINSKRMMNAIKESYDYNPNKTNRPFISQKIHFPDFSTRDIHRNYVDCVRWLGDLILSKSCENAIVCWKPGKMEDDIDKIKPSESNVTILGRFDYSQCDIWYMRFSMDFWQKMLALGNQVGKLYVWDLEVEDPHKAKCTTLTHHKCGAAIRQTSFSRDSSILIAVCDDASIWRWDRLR

Row | IC50 [1] [µM] | IC50 [3] [µM] | SMILES | IC50 [2] [µM]
1 | 0.0113 | 0.0102 | CC(C)(O)Cc1ccc(-c2cnc(NCc3c(F)ccc4c3CCO4)n3cnnc23)c2ncnn12 [1-(8-(5-(((5-fluoro-2,3-dihydrobenzofuran-4-yl)methyl)amino)-[1,2,4]triazolo[4,3-c]pyrimidin-8-yl)-[1,2,4]triazolo[1,5-a]pyridin-5-yl)-2-methylpropan-2-ol] | 0.0032
2 | 0.0065 | 0.0032 | CCC(O)c1ccc(-c2cnc(NCc3c(F)ccc4c3CCO4)n3cnnc23)c2ncnn12 (stereo not drawn) [1-(8-(5-(((5-fluoro-2,3-dihydrobenzofuran-4-yl)methyl)amino)-[1,2,4]triazolo[4,3-c]pyrimidin-8-yl)-[1,2,4]triazolo[1,5-a]pyridin-5-yl)propan-1-ol] | 0.0026
3 | 0.0047 | 0.0033 | OC1(c2ccc(-c3cnc(NCc4c(F)ccc5c4CCO5)n4cnnc34)c3ncnn23)CC1 [1-[8-(5-{[(5-fluoro-2,3-dihydro-1-benzofuran-4-yl)methyl]amino]-[1,2,4]triazolo[4,3-c]pyrimidin-8-yl)-[1,2,4]triazol[1,5-a]pyridin-5-yl]cyclopropan-1-ol] | 0.0009
4 | 0.0055 | 0.0016 | OC1(c2ccc(-c3cnc(NCc4c(F)ccc5c4CCO5)n4cnnc34)c3ncnn23)CCC1 [1-[8-(5-{[(5-fluoro-2,3-dihydro-1-benzofuran-4-yl)methyl]amino]-[1,2,4]triazolo[4,3-c]pyrimidin-8-yl)-[1,2,4]triazolo[1,5-a]pyridin-5-yl]cyclobutan-1-ol] | 0.0003
5 | 0.0043 | 0.0022 | CC(O)(CF)c1ccc(-c2cnc(NCc3c(F)ccc4c3CCO4)n3cnnc23)c2ncnn12 (stereo not drawn) [1-fluoro-2-[8-(5-{[(5-fluoro-2,3-dihydro-1-benzofuran-4-yl)methyl]amino}-[1,2,4]triazolo[4,3-c]pyrimidin-8-yl)-[1,2,4]triazolo[1,5-a]pyridin-5-yl]propan-2-ol] | 0.0011
6 | 0.0057 | 0.0146 | CC(C)(O)c1c(F)cc(-c2cnc(NCc3c(F)ccc4c3CCO4)n3cnnc23)c2ncnn12 [2-(6-fluoro-8-(5-(((5-fluoro-2,3-dihydrobenzofuran-4-yl)methyl)amino)-[1,2,4]triazolo[4,3-c]pyrimidin-8-yl)-[1,2,4]triazolo[1,5-a]pyridin-5-yl)propan-2-ol] | 0.0059
7 | 0.0084 | 0.0065 | Cc1nc2c(-c3cnc(NCc4c(F)ccc5c4CCO5)n4cnnc34)cnc(C(C)(C)O)n2n1 [2-(8-(5-(((5-fluoro-2,3-dihydrobenzofuran-4-yl)methyl)amino)-[1,2,4]triazolo[4,3-c]pyrimidin-8-yl)-2-methyl-[1,2,4]triazolo[1,5-c]pyrimidin-5-yl)propan-2-ol] | 0.0006
8 | 0.0075 | 0.0087 | Cc1cc(-c2cnc(NCc3c(F)ccc4c3CCO4)n3cnnc23)c2ncnn2c1C(C)(C)O [2-(8-(5-(((5-fluoro-2,3-dihydrobenzofuran-4-yl)methyl)amino)-[1,2,4]triazolo[4,3-c]pyrimidin-8-yl)-6-methyl-[1,2,4]triazolo[1,5-a]pyridin-5-yl)propan-2-ol] | 0.0024
9 | 0.0075 | 0.0052 | CCC(C)(O)c1ccc(-c2cnc(NCc3c(F)ccc4c3CCO4)n3cnnc23)c2ncnn12 (stereo not drawn) [2-(8-(5-(((5-fluoro-2,3-dihydrobenzofuran-4-yl)methyl)amino)-[1,2,4]triazolo[4,3-c]pyrimidin-8-yl)-[1,2,4]triazolo[1,5-a]pyridin-5-yl)butan-2-ol] | 0.0021
10 | 0.0062 | 0.0066 | CC(C)(O)c1ncc(-c2cnc(NCc3c(F)ccc4c3CCO4)n3cnnc23)c2ncnn12 [2-(8-(5-(((5-fluoro-2,3-dihydrobenzofuran-4-yl)methyl)amino)-[1,2,4]triazolo[4,3-c]pyrimidin-8-yl)-[1,2,4]triazolo[1,5-c]pyrimidin-5-yl)propan-2-ol] | 0.0028
11 | 0.0035 | 0.0077 | CCC(O)(CC)c1ccc(-c2cnc(NCc3c(F)ccc4c3CCO4)n3cnnc23)c2ncnn12 [3-(8-(5-(((5-fluoro-2,3-dihydrobenzofuran-4-yl)methyl)amino)-[1,2,4]triazolo[4,3-c]pyrimidin-8-yl)-[1,2,4]triazolo[1,5-a]pyridin-5-yl)pentan-3-ol] | 0.0024
